Measurements as given in ChEMBL document CHEMBL1146571, “Mycalosides B-I, eight new spermostatic steroid oligoglycosides from the sponge Mycale laxissima” (J Nat Prod, 2003).
Values after ≈ are worked out from the molar mass of the structure shown.

Assay: Spermatostatic activity against Strongylocentrotus nudus sperm assessed as inhibition of egg fertilization preincubated 15 mins before artificial insemination
Format: functional, cell-based, Mesocentrotus nudus

EC50	Compound
3.2 µg/mL (≈ 3 µM)	CC(C)[C@H](C)/C=C/[C@@H](CO)[C@H]1C[C@H](O)[C@H]2[C@@H]3CC=C4[C@@H](O)[C@@H](O[C@@H]5O[C@H](CO)[C@@H](O[C@@H]6O[C@H](CO)[C@H](O)[C@H](O)[C@H]6O)[C@H](O[C@@H]6OC[C@@H](O)[C@@H](O)[C@@H]6O[C@H]6O[C@H](CO)[C@H](O)[C@H](O)[C@H]6O)[C@H]5O)CC[C@]4(C)[C@H]3CC[C@@]21C [MYCALOSIDE A]
3.2 µg/mL (≈ 3.04 µM)	CC(C)CCC[C@@H](CO)[C@H]1CC(=O)[C@H]2[C@@H]3CC=C4[C@@H](O)[C@@H](O[C@@H]5O[C@H](CO)[C@@H](O[C@@H]6O[C@H](CO)[C@H](O)[C@H](O)[C@H]6O)[C@H](O[C@@H]6OC[C@@H](O)[C@@H](O)[C@@H]6O[C@H]6O[C@H](CO)[C@H](O)[C@H](O)[C@H]6O)[C@H]5O)CC[C@]4(C)[C@H]3CC[C@]12C [MYCALOSIDE G]
